# Measurements from patent US20090264342A1, “COMPOSITIONS AND METHODS FOR ANTIBIOTIC POTENTIATION AND DRUG DISCOVERY” (priority 2006, published 2009).
# How the values were obtained:
# [1] = target: T1, E. Coli RecA protein (Escherichia coli, UniProt P0A7G6); assay: RecA ATPase activity, in vitro luciferase assay; format: biochemical; settings: luciferase assay screen, FIG. 14
# T1 construct: purchased New England Biolabs
# Description: The assay measures the amount of ATPase (adenosine triphosphate (ATP)-adenosine diphosphate (ADP)) activity catalyzed by E. Coli RecA protein. In the assay, recA is incubated in reaction buffer with DNA, ATP and compounds of interest for a measured amount of time. The quantity of ATP remaining after the RecA reaction is quantitated using a subsequent luciferase assay. […] Details of the assay are provided below.
# Materials. Kingase glo plus, adenosine triphosphate (ATP), Adenosine 5′-O-(3-thiotriphosphate), and 384 well plates, white were obtained from Fisher; and M13 mp18 Single-stranded DNA, RecA Protein and T4 Polynucleotide Kinase Reaction Buffer=PNK were obtained from New England Biolabs. PNK contained 70 mM Tris-CL pH 7.5, 10 mM MgCl2 and 5 mM DTT.
# Assay Procedure. Final reaction mixture contains: 0.5 μL of M13 single stranded DNA (250 μg/mL); 1.0 μL of 10×PHK buffer; 0.25 μL of RecA (2 mg/mL); 0.25 μL of 1 mM ATP; 0.25 μL of test compound in DMSO; and […] of H2O.
# Test compounds are incubated at room temperature in the presence of RecA protein and DNA prior to addition of ATP. This can be achieved by the preparation of two mixes, as indicated below. Desirably, both a no-DNA and a DNA/DMSO-only (i.e., no test compound) control were included.
# The following steps are then performed: (1) Add 7.75 μL of mix 1 to the well of a 384 well plate; (2) Add 0.5 μL of the compound of interest; (3) Incubate at room temperature for 5 minutes; (4) Add 2.5 μL of the ATP mix. Incubate at room temperature for 30 minutes; (5) Add 12.5 μL of Promega Kinase glo plus; (6) Incubate at room temperature for 10 minutes or more; and (7) Measure luminescence of the reaction.
# Tested compounds were obtained from Boston University (1205 compounds from CMLD diversity library, available from Dr. Scott Schauss), IndoFine (66 compounds based on flavone structure), ChemdiV (48 compounds known to be ATPase inhibitors and 720 compounds structurally related to CB101 (described, for example, in U.S. Ser. No. 60/662,038), and Asinex. Five (5) tested compounds were bisfiavones and 28 were predicted, based on structural modeling (see, for example, Example 31) to dock with Rec A. Many of the compounds are lipophilic, natural-product-like compounds. Others are flavones, bisflavones, flavonoids, coumarins, and/or heterocyclic compounds.
# Percent inhibition is calculated according to the following equation: […]
# [2] = system: E. coli MG1655; assay: Hydroxyl radical formation (HPF dye, flow cytometry) in E. coli; format: cell-based; settings: E. coli; 250 ng/mL norfloxacin, 5 μg/mL ampicillin, 5 μg/mL kanamycin; bacteriostatic drugs; 3 hours after addition
# Description: (§1) Growth Conditions. In the experiments, the growth and survival of untreated exponential phase E. coli, or S. aureus, were compared to cultured treated with antibiotics at the above concentrations. E. coli cultures were treated with norfloxacin, kanamycin, ampicillin, rifamycin SV, chloramphenical, tetracycline, erythromycin, or spectinomycin, where appropriate, S. aureus cultures were treated with norfloxacin, vancomycin or chloramphenical, where appropriate.
# (§2) Hydroxyl radical and DNA damage sensor experiments using the flow cytometer. To monitor the occurrence of DNA damage, the engineered DNA damage sensor was used, which responds to auto-cleavage of LexA by activating expression of gfpmut3b. All the drug treatments and the no-drug controls were collected with both the kanamycin- and ampicillin-resistant version of the plasmid, with the exception of the ampicillin treatment (kanamycin plasmid only) and the kanamycin treatment (ampicillin plasmid only). All data were collected using a Becton Dickinson FACSCalibur flow cytometer (Becton Dickinson, San Jose, Calif.) with a 488-nm argon laser and a 515- to 545-nm emission filter (FL1) at low flow rate. The following PMT voltage settings were used: E00 (FSC), 360 (SSC) and 700 (FL1). To detect hydroxyl radical formation, the fluorescent reporter dye, 3′-(p-hydroxyphenyl) fluorescein (HPF, Invitrogen, Carlsbad, Calif.) was used at a concentration of 5 μM (1:1000) dilution), which is oxidized by hydroxyl radicals with high specificity. The following PMT voltage settings were used: E00 (FSC), 360 (SSC) and 825 (FL 1). Calibrite beads (Becton Dickinson) were used for instrument calibration.
# Flow data were processed and analyzed with MATLAB (MathWorks, Natick, Mass.) to construct figures. At least 50,000 cells were collected for each sample. In all experiments, cells were grown as described above. Samples were taken immediately before addition of drug (time zero), then every hour for 3 hours. At each timepoint, approximately […] were collected, washed once and resuspended in filtered 1×PBS, pH 7.2 (Fisher Scientific), and fluorescence was measured on the flow cytometer.
# In the present study, the Applicants chose to investigate whether hydroxyl radical formation also contributes to antibiotic-induced cell death in bacteria. Using the dye hydroxyphenyl fluorescein, HPF, which is oxidized by hydroxyl radicals with high specificity, hydroxyl radical formation was first observed over a range of hydrogen peroxide concentrations known to induce hydroxyl radicals through the reduction of hydrogen peroxide by ferrous iron. In this manner, it was possible to establish the scale of hydroxyl radical formation detectable using this dye via flow cytometry.
# [3] = system: wild type E. coli; assay: Growth of wild type E. coli in the presence of quinolone (OD600); format: cell-based; settings: 0.1 μg/mL of Cipro (sublethal concentration)
# Excerpt: Each deletion strain was constructed by replacing the chromosomal copy of the relevant gene in a wild type E. coli strain (K-12) with a selectable antibiotic resistance gene, essentially as described, to create a precise gene deletion (Datsenko, K. A. and Wanner, B. L., “One-step inactivation of chromosomal genes in Escherichia coli K-12 using PCR products”, Proc Natl Acad Sci USA, 97, 6640-6645, […]); Baba, T., Ara, T., Okumura, Y., iki Hasegawa, M., Takai, Y., Baba, M., Oshima, T., Tomita, M., Wanner, B. and Mori, H. (2003) Systematic construction of single gene deletion mutants in Escherichia coli K-12 (in preparation) and see also the web site at ecoli.aist-nara.ac.jp/gb5/Resources/deletion/deletion.html).
# For each mutant, the ratio of growth of the mutant in the presence of a sublethal concentration of quinolone to growth of the mutant in the absence of quinolone was calculated after 12 hours of growth at 37° C., based on OD600 measurements. […]
# [4] = system: S. aureus cells; assay: Mutation/resistance assay, resistance to ciprofloxacin; format: cell-based; settings: 4×MIC ciprofloxacin with (+) or without (−) 25 μg/mL hinokiflavone
# Description: This assay measures the rate at which mutant cells arise in the presence of an antibiotic agent. Cells are grown in the presence of antibiotic agent at a concentration above (generally well above, e.g., 4× or 8×) its MIC, and further in the presence or absence of a test agent (that may inhibit or enhance mutation).
# Every 24 hours, an aliquot is removed from the culture and is diluted so that the antibiotic agent is no longer present at a concentration above its MIC (e.g., so that the antibiotic agent is present at 0.5×MIC or less). These aliquoted samples are then assayed to determine whether they can grow in the presence of the antibiotic agent. Specifically, when growth is observed in the presence of antibiotic agent at a concentration that is 4×MIC, then resistance is said to have developed. Test compounds can therefore be assayed to assess whether or not they can reduce the incidence of resistance (e.g., by inhibiting mutation).
# These aliquoted samples were then assayed to determine whether they can grow in the presence of ciprofloxacin. […]
# [5] = system: wild-type strain of S. aureus; assay: Hydroxyl radical formation (HPF dye, flow cytometry) in S. aureus; format: cell-based
# Description: For work with S. aureus, a Staphylococcus aureus subspecies aureus Rosenback strain was used that was obtained from ATCC (29740).
# as §1, §2
# [6] = system: strain E1; assay: Potentiation of gentamicin by mefloquine (MBC, MIC); format: cell-based
# Excerpt: Several aminoglycoside (gentamicin) potentiator target genes identified in Example 34 are ATP synthases.
# [7] = target: E. coli H+ATPase (Escherichia coli, UniProt P0AB98+P68699); settings: cited from earlier work
# T1 sequence (P0A7G6 2-353): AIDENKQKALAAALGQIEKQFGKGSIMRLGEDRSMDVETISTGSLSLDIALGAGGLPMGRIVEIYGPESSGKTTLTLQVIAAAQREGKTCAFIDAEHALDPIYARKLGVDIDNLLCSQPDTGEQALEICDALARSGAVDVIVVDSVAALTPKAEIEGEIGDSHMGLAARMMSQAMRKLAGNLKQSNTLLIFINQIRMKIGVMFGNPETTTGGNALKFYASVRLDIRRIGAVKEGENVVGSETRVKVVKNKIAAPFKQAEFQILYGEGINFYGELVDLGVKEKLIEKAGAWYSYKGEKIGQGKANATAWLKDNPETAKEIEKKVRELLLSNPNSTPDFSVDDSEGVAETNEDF
compound,measurement,setting,value
O.O.O=c1c(O)c(-c2ccc(O)c(O)c2)oc2cc(O)cc(O)c12 [quercetin dihydrate],activity as inhibitor of RecA ATPase (in words),[1],particularly active
O=c1c(O)c(-c2ccc(O)cc2O)oc2cc(O)cc(O)c12 [morin],activity as inhibitor of RecA ATPase (in words),[1],particularly active
CC[C@H]1OC(=O)[C@H](C)[C@@H](O[C@H]2C[C@@](C)(OC)[C@@H](O)[C@H](C)O2)[C@H](C)[C@@H](O[C@@H]2O[C@H](C)C[C@H](N(C)C)[C@H]2O)[C@](C)(O)C[C@@H](C)C(=O)[C@H](C)[C@@H](O)[C@]1(C)O [erythromycin],hydroxyl radical formation,[2],did not stimulate hydroxyl radical production
O=c1c(O)cc([C@H]2Oc3cc(O)cc(O)c3C[C@H]2O)cc2c([C@H]3Oc4cc(O)cc(O)c4C[C@H]3O)cc(O)c(O)c12 [theaflavin],activity as inhibitor of RecA ATPase (in words),[1],particularly active
O=c1c(O)c(-c2ccc(O)c(O)c2)oc2cc(O)c(O)c(O)c12 [quercetagetin],activity as inhibitor of RecA ATPase (in words),[1],particularly active
O=c1cc(-c2ccc(O)cc2)oc2cc(O)c(O)c(O)c12 [6-hydroxy-apigenin],activity as inhibitor of RecA ATPase (in words),[1],particularly active
O=C(c1ccc(O)c(O)c1)c1c(O)cc(O)cc1O [maclurin],activity as inhibitor of RecA ATPase (in words),[1],particularly active
O=c1c(O)c(-c2ccc(O)c(O)c2)oc2cc(O)ccc12 [fisetin],activity as inhibitor of RecA ATPase (in words),[1],particularly active
"O=C(O)c1cn(C2CC2)c2cc(N3CCNCC3)c(F)cc2c1=O [Cipro, ciprofloxacin]",growth of wild type E. coli in the presence of Cipro,[3],able to grow
same,Number of Wells in which Growth Observed in Presence of Ciprofloxacin at 4x MIC,[4]; culture grown 0 days,0
same,Number of Wells in which Growth Observed in Presence of Ciprofloxacin at 4x MIC,[4]; culture grown 1 day,1
same,Number of Wells in which Growth Observed in Presence of Ciprofloxacin at 4x MIC,[4]; culture grown 5 days,2
same,Number of Wells in which Growth Observed in Presence of Ciprofloxacin at 4x MIC,[4]; culture grown 6 days,2
same,Number of Wells in which Growth Observed in Presence of Ciprofloxacin at 4x MIC,[4]; culture grown 7 days,3
same,Number of Wells in which Growth Observed in Presence of Ciprofloxacin at 4x MIC,[4]; culture grown 10 days,11
O=c1c(O)c(-c2ccc(O)cc2)oc2cc(O)cc(O)c12 [kaempferol],activity as inhibitor of RecA ATPase (in words),[1],particularly active
CO[C@H]1/C=C/O[C@@]2(C)Oc3c(C)c([O-])c4c(O)c(cc(O)c4c3C2=O)NC(=O)/C(C)=C\C=C\[C@H](C)[C@H](O)[C@@H](C)[C@@H](O)[C@@H](C)[C@H](OC(C)=O)[C@@H]1C.[Na+] [rifamycin SV],hydroxyl radical formation,[2],did not stimulate hydroxyl radical production
CN[C@H](CC(C)C)C(=O)N[C@H]1C(=O)N[C@@H](CC(N)=O)C(=O)N[C@H]2C(=O)N[C@H]3C(=O)N[C@H](C(=O)N[C@H](C(=O)O)c4cc(O)cc(O)c4-c4cc3ccc4O)[C@H](O)c3ccc(c(Cl)c3)Oc3cc2cc(c3O[C@@H]2O[C@H](CO)[C@@H](O)[C@H](O)[C@H]2O[C@H]2C[C@](C)(N)[C@H](O)[C@H](C)O2)Oc2ccc(cc2Cl)[C@H]1O [vancomycin],hydroxyl radical formation,[5]; lethal concentration (5 μg/mL),increase in hydroxyl radical production
same,hydroxyl radical formation,[5]; sub-lethal concentration (1 μg/mL),hydroxyl formation was not observed
O=C(N[C@H](CO)[C@H](O)c1ccc([N+](=O)[O-])cc1)C(Cl)Cl [chloramphenicol],hydroxyl radical formation,[2],did not stimulate hydroxyl radical production
same,hydroxyl radical formation,"[5]; norfloxacin, chloramphenical",hydroxyl formation was not observed
"O=c1c(O)c(-c2ccc(O)cc2)oc2cc(O)ccc12 [3,7,4′-trihydroxyflavone]",activity as inhibitor of RecA ATPase (in words),[1],particularly active
O=c1cc(-c2ccc(O)cc2)oc2cc(O)cc(O)c12 [apigenin],activity as inhibitor of RecA ATPase (in words),[1],particularly active
OC(c1cc(C(F)(F)F)nc2c(C(F)(F)F)cccc12)C1CCCCN1 (centres unmarked) [Mefloquine],reduction of the MBC of gentamicin,"[6]; strain E1, Mefloquine 100 μg/mL",6 fold
same,reduction of the MIC of gentamicin,"[6]; strain E1, Mefloquine 500 μg/mL",2 fold
O=c1cc(-c2ccc(O)cc2)oc2cc(O[C@@H]3O[C@H](CO)[C@@H](O)[C@H](O)[C@H]3O)cc(O)c12 [apigenin-7-O-glucoside],activity as inhibitor of RecA ATPase (in words),[1],particularly active
COc1cc(-c2oc3cc(O)cc(O)c3c(=O)c2O)ccc1O [isorhamnetin],activity as inhibitor of RecA ATPase (in words),[1],particularly active
CC[C@H]1/C=C/C=C/C[C@@H](C)[C@H](O)[C@@](C)(O)C(=O)[C@@H](C)[C@H](O)[C@@H](C)C(=O)[C@@H](C)[C@H](O)[C@@H](C)/C=C/C(=O)O[C@@H]2[C@H](C)[C@H](CC1)O[C@]1(CC[C@H](C)[C@H](C[C@@H](C)O)O1)[C@H]2C [oligomycin],inhibition of ATP-driven proton transport and ATP hydrolysis,[7],weakly inhibited
venturicidin,inhibition of ATP-driven proton transport and ATP hydrolysis,[7],strongly inhibited
